In patent publication US20090285899A1, “COMBINATION OF DEHYDROEPIANDROSTERONE OR DEHYDROEPIANDROSTERONE-SULFATE WITH A METHYLXANTHINE DERIVATIVE FOR TREATMENT OF ASTHMA OR CHRONIC OBSTRUCTIVE PULMONARY DISEASE” (priority 2003, published 2009):
Several values for one entry are separate records, joined by “and”; a condition that tells them apart may be missing. Equal values may be shown once. Read-outs that look alike come from different tables or passages of the source.

How the values were obtained:
[1] = Physicochemical testing of DHEA-S dihydrate before and after micronization; conditions: for Water: Karl Fischer
Description: Surface area is determined using five point BET analyses are performed with nitrogen as the adsorbing gas (P/Po=0.05 to 0.30) using a Micromeritics TriStar surface area analyzer. Particle size distributions are measured by laser diffraction using a Micromeritics Saturn Digisizer where the particles are suspended in mineral oil with sodium dioctyl sodium sulfosuccinate as a dispersing agent. Drug substance water content is measured by Karl Fischer titration (Schott Titroline KF). Pure water is used as the standard and all relative standard deviations for triplicates are less than 1%. Powder is added directly to the titration media.

[2] = COPD patients, background; cited from earlier work
HT-29 SF cells [3] = experiment: Reversal of DHEA-mediated growth inhibition; format: cell-based, human; conditions: 25 μM DHEA, 48 hours of treatment
Intracellular adenosine = format: in vivo, rat
Description: Folinic acid (50 mg/kg) was administered intraperitoneally once daily for fourteen days. […] Hearts were removed from animals and flash frozen in liquid nitrogen with 10 s of death. Liver and lungs were removed en bloc and flash frozen with […]. Brain tissue was subsequently dissected.

Solubility of DHEA-S = format: physicochemical
Description: Inhalation of pure water can produce a cough stimulus. […] The temperature effect is weaker at high NaCl concentrations.

HT-29 SF cells [4] = experiment: DHEA effect on cell cycle (flow cytometry); format: cell-based, human; conditions: 25-200 μM, 24-72 hours
Description: Cells were plated at 10^5/60-mm dish in duplicate. […] Cultures were trypsinized following 0, 24, 48, or 74 hours and fixed and stained using a modification of a procedure of Bauer et al., Cancer Res. 46, 3173-3178 (1986). Briefly, cells were collected by centrifugation and resuspended in cold phosphate-buffered saline. Cells were fixed in 70% ethanol, washed, and resuspended in phosphate-buffered saline.
After 24, 48, and 72 hours, cells were harvested, fixed in ethanol, and stained with propidium iodide, and the DNA content/cell was determined by flow cytometric analysis. The percentage of cells in G1, S, and G2M phases was calculated using the Cellfit cell cycle analysis program. S phase is marked by a quadrangle for clarity. Representative histograms from duplicate determinations are shown. The experiment was repeated three times.

HT-29 SF cells [5] = experiment: DHEA effect on cell growth; conditions: 12.5-200 μM, 24-72 hours
Description: Cell cultures, HT-29 SF cells, which represent a subline of HY-29 cells (ATCC, Rockville, Md.) and are adapted for growth in completely defined serum-free PC-1 medium (Ventrex, Portland, Me.), were obtained. Stock cultures were maintained in this medium at 37° C. (in a humidified atmosphere containing 5% CO2).

Human ASM cells = experiment: [3H]-thymidine incorporation (DNA synthesis) in human airway smooth muscle cells; format: cell-based; conditions: alone or in combinations
Description: Human ASM cells were obtained from the distal trachea of transplant donors in compliance with the University of Pennsylvania's Institutional Review Board. Distal trachealis was dissected free of connective tissue and enzymatically digested to yield approximately 1×10^4 human ASM cells. […] The cells were scraped and placed on filters which were then counted using a beta counter. All experiments were repeated in a minimum of three human ASM cell lines. All conditions per experiment were run with six replicates.
There are three classes of commonly used anti-asthma medications that alter cAMP concentrations and/or adenosine concentrations. These classes of drugs are: methylxanthines, beta-agonists and phosphodiesterase inhibitors. For each of these drug classes, isobutylmethylxanthine (IBMX) was used as the tool compound to inhibit smooth muscle proliferation.

[6] = Short-term solution stability of DHEA-S nebulizer formulation; format: physicochemical; conditions: 10 mg/mL in 0.12% NaCl, RT (24-26° C.)
Description: Aliquots of this solution are filled into clear glass vials and stored at RT (24-26° C.) and at 40° C. The samples are checked daily for DHEA-S content, DHEA content, and appearance. For each time point, duplicate samples are withdrawn and diluted from each vial. […] The study is stopped on day three. […] The solution should easily be stable for the day of reconstitution in a clinical trial. The following section describes the aerosol properties of this formulation.

HT-29 SF cells [7] = experiment: Reversal of DHEA effect on cell cycle; format: cell-based, human; conditions: 25 FM DHEA
[8] = Particle size of jet-milled / spray-dried DHEA-S (Malvern Mastersizer X, light microscope); format: physicochemical; conditions: double pass through the jet mill
Description: Approximately 1 g sample was passed through the jet mill, once, and approximately 2 g sample were passed through the jet mill twice. […] The resulting solution was sonicated for 3 minutes and appeared fully dispersed. The dispersed solutions were tested on a Malvern Mastersizer X with a small volume sampler (SVS) attachment. One sample of dispersed material was tested 5 times. The median particle size or D (v, 0.5) of unmilled material was 52.56 μm and the % RSD (relative standard deviation) was 7.61 for the 5 values. The D (v, 0.5) for a single pass through the jet mill was 3.90 μm and the % RSD was 1.27, and the D (v, 0.5) from a double pass through the jet mill […] and the % RSD was 3.10.
The solution was spray-dried with a B-191 Mini Spray-Drier (Buchi, Flawil, Switzerland) with an inlet temperature of 55° C., outlet temperature of 40° C., at 100% aspirator, at 10% pump, nitrogen flow at 40 mbar and spray flow at 600 units. The spray-dried product was suspended in hexane and Span85 surfactant added to reduce agglomeration. The dispersions were sonicated with cooling for 3-5 minutes for complete dispersion and the dispersed solutions tested on a Malvern Mastersizer X with a Small Volume Sampler (SVS) attachment. […] Visual examination by light microscope of the dispersions of each batch confirmed that spray drying produced small respirable size particles. […]

C[C@]12CC[C@H](OS(=O)(=O)[O-])CC1=CC[C@@H]1[C@@H]2CC[C@]2(C)C(=O)CC[C@@H]12.[Na+] [DHEA-S dihydrate, sodium dehydroepiandrostenone sulfate]
Impurities ([1]; Bulk): No significant peaks | Water ([1]; Bulk): 8.5 % w/w | Impurities ([1]; Micronized): No significant peaks | Water ([1]; Micronized): 8.4 % w/w | Surface area ([1]; Micronized, five point BET): 4.9 m^2/g

Cn1c(=O)c2[nH]cnc2n(C)c1=O [Theophylline, 3,7-dihydro-1,3-dimethyl-1H-purine-2,6-dione]
Serum concentrations required for optimal effects [2]: 15000 to 20000 ng/mL

CC(C)=CCC/C(C)=C/CC/C(C)=C/CC/C=C(\C)CC/C=C(\C)CCC=C(C)C [SQ, squalene]
Effect of supplement on DHEA-induced growth inhibition (HT-29 SF cells [3]): no such effect

Nc1nc(=O)c2c([nH]1)NCC(CNc1ccc(C(=O)N[C@@H](CCC(=O)O)C(=O)O)cc1)N2C=O (mixture of isomers) [Folinic Acid, Folinic acid]
Effect of folinic acid alone on adenosine levels (Intracellular adenosine; administered alone): increase in adenosine levels for all organs studied | Effect of coadministered folinic acid on steroid-mediated adenosine depletion (Intracellular adenosine; coadministration with DHEA or methyltestosterone): completely abrogated steroid-mediated adenosine depletion

C[C@]12CC[C@H](O)CC1=CC[C@@H]1[C@@H]2CC[C@]2(C)C(=O)CC[C@@H]12 [DHEA, 3β-hydroxyandrost-5-en-17-one]
Effect on tissue adenosine (in words) (Intracellular adenosine; rat, in vivo): multi-organ depletion of adenosine | Solubility in water (in words) (Solubility of DHEA-S; water): insoluble in water | Cell cycle effect (in words) (HT-29 SF cells [4]): produced a G1 block in HT-29 SF cells in a time- and dose-dependent manner | Inhibition of growth (in words) (HT-29 SF cells [5]): time- and dose-dependent inhibition of growth

C[C@]12CC[C@H](OS(=O)(=O)[O-])CC1=CC[C@@H]1[C@@H]2CC[C@]2(C)C(=O)CC[C@@H]12.[Na+] [DHEA-S, sodium dehydroepiandrostenone sulfate]
Effect on smooth muscle proliferation without EGF stimulation (FIG. 18) (Human ASM cells): neither IBMX nor DHEA-S alone or in combinations inhibits smooth muscle proliferation | Appearance of solution on storage [6]: a slight precipitate is observed on the third day | Estimated DHEA-S concentration in solution (Solubility of DHEA-S; 15° C., 20 mM Na+, Ksp 1316 mM^2): 27.5 mM and 10.7 mg/mL | Ksp at 15° C. (Solubility of DHEA-S; interpolated versus reciprocal of absolute temperature): 1316 mM^2

C[C@@](O)(CCO)CC(=O)O [MVA, mevalonic acid]
Effect of supplement on DHEA-induced growth inhibition (HT-29 SF cells [3]): partially overcome | Effect of supplement on DHEA-induced reduction of S phase cells (HT-29 SF cells [7]; 48 hours): partially prevented this effect | Effect of supplement on DHEA-induced reduction of S phase cells (HT-29 SF cells [7]; 72 hours): not after 72 hours

CC(C)CCC[C@@H](C)[C@H]1CC[C@H]2[C@@H]3CC=C4C[C@@H](O)CC[C@]4(C)[C@H]3CC[C@]12C [CH, cholesterol]
Effect of supplement on DHEA-induced growth inhibition (HT-29 SF cells [3]): no such effect | Effect of supplement on DHEA-induced reduction of S phase cells (HT-29 SF cells [7]; 48 hours): very little effect | Effect of supplement on DHEA-induced reduction of S phase cells (HT-29 SF cells [7]; 72 hours): no effect

C[C@]12CC[C@H](OS(=O)(=O)[O-])CC1=CC[C@@H]1[C@@H]2CC[C@]2(C)C(=O)CC[C@@H]12.[Na+] [Anhydrous DHEA-S, sodium dehydroepiandrostenone sulfate]
Median particle size D (v, 0.5) [8]: 3.25 ™

C[C@]12CCC(=O)C=C1CC[C@@H]1[C@@H]2CC[C@@]2(C)[C@H]1CC[C@]2(C)O [Methyltestosterone, methyltestosterone]
Effect on tissue adenosine (in words) (Intracellular adenosine; daily for two weeks): multi-organ depletion of adenosine
